{"source": "patent US7223533B2", "about": "“Cell surface proteins and use thereof as indicators of activation of cellular signal transduction pathways” (priority 1999, dated 2007)", "molecules": {"B1": {"name": "Sag1p^21-352: N-terminal portion of Sag1p (α-agglutinin, residues 21–352) bearing a polyhistidine tag, Xpress epitope and enterokinase cleavage site (protein)", "chain": "NINDITFSNLEITPLTANKQPDQGWTATFDFSIADASSIREGDEFTLSMPHVYRIKLLNSSQTATISLADGTEAFKCYVSQQAAYLYENTTFTCTAQNDLSSYNTIDGSITFSLNFSDGGSSYEYELENAKFFKSGPMLVKLGNQMSDVVNFDPAAFTENVFHSGRSTGYGSFESYHLGMYCPNGYFLGGTEKIDYDSSNNNVDLDCSSVQVYSSNDFNDWWFPQSYNDTNADVTCFGSNLWITLDEKLYDGEMLWVNALQSLPANVNTIDHALEFQYTCLDTIANTTYATQFSTTREFIVYQGRNLGTASAKSSFISTTTTDLTSINTSAY", "modifications": "left off: small tags and cut ends"}}, "key": {"[1]": {"molecular_target": "T1, ML1aR (Homo sapiens, UniProt P48039)", "T1 construct": "expressed in transfected cells; host or cells: S. cerevisiae (CY17353 in A11/A12; aga1 mutant CY19890 in A13), plasmid Cp2695 (PGKp-ML1aR)", "T1 sequence (P48039 whole entry)": "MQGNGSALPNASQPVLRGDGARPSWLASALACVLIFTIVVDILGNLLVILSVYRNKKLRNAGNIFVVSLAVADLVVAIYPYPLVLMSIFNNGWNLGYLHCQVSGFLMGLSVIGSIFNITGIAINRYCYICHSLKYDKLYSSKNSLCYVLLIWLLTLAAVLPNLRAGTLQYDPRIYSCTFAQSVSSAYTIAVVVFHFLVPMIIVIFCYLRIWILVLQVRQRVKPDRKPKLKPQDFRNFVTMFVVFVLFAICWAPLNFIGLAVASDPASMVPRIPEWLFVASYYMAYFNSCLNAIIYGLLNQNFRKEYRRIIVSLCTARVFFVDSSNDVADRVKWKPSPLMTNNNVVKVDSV", "assay": "Scintillation proximity assay of secreted HA-tagged Aga2p (aga1 mutant strain CY19890)", "type": "cell-based", "settings": "1 μM melatonin", "experimental": "A particular embodiment of these types of cell-free Aga2 assays is the scintillation proximity assay. In this technique, the extracellular medium potentially containing the Aga2 protein is incubated with antibodies specific for Aga2. These antibodies are also biotinylated, and thus the antibody-Aga2 complex can be tethered to the surface of SPA beads coated with streptavidin (and also containing scintillant). Sag1p^21-352 is radiolabeled with, e.g., ^125I or ^3H, and is incubated with the Aga2-loaded beads. Binding of the fusion protein to the immobilized Aga2 protein brings the radiolabel in proximity to the scintillant contained within the beads, resulting in the emission of light. This emission can be readily quantitated using a scintillation counter. The presence of light indicates the presence of the Aga2 protein, and thus that the pheromone response pathway was activated in the yeast cells by the test compound via the G protein coupled receptor.\nThe following experiment was conducted in order to test the utility of the scintillation proximity assay for the detection of Aga2p induction mediated by heterologous receptors in yeast. […] One hundred microliter aliquots of culture media were placed into a 96-well plate and the following solutions were added to each well: 20 μl of 0.5 M sodium phosphate, pH 6.0, 1.5 M sodium chloride, 1% Tween 20, 10% BSA; 0.25 μg of SPA beads (Amersham) coated with biotinylated HA.11 antibodies (BAbCo) in 25 μl of PBS (20 mM sodium phosphate, pH 7.2, 0.15 M sodium chloride) and 25 μl of PBS containing [1^25,]-Sag1p^21-352 (250,000 cpm). SPA beads were prepared as follows. Fifty milligrams of streptavidin-coated yttrium silicate beads were incubated in 2 ml of PBS containing 1% BSA, 0.1% Tween 20 and 0.5 mg biotinylated HA. 11 antibodies for 4 hr at room temperature. The beads were washed three times with PBS and resuspended in 1 ml of the same buffer. Sag1p^21-352 was iodinated according to standard protocols using lactoperoxidase.\nLight emission was quantitated using a scintillation counter after incubation of the plate at room temperature for 1 hr, 2 hr and 6 hr."}, "[2]": {"molecular_target": "T2, ML1a receptor (Homo sapiens, UniProt P48039)", "T2 construct": "expressed in transfected cells; host or cells: S. cerevisiae (CY17353 in A11/A12; aga1 mutant CY19890 in A13), plasmid Cp2695 (PGKp-ML1aR)", "T2 sequence (P48039 whole entry)": "as above", "assay": "ELISA-like assay of endogenous Aga2 protein with Sag1p21-352", "type": "cell-based", "settings": "yeast cells containing the ML1a receptor, peroxidase assay", "experimental": "(§1) Extraction of the endogenous Aga2 protein was effected with DTT, as before. Aliquots (25 microliters) of extracts were diluted with 75 microliters of 100 mM sodium bicarbonate, pH 9.5 and the resulting samples were incubated in 96-well polystyrene plates at 4° C. overnight.\n(§2) After washing the plates three times with PBS, pH 6.5, supplemented with 0.1% Tween 20, samples were blocked with the same buffer containing 3% bovine serum albumin at 37° C. for 1 hour. After blocking, the plates were incubated subsequently with EndoH-treated Sag1p^21-352 solution (0.5 mg/ml), 1000-fold diluted anti-Xpress antibodies (Invitrogen) and 5000-fold diluted sheep anti-mouse IgG conjugated with horseradish peroxidase (Amersham Pharmacia Biotech). Both Sag1p^21-352 and antibodies were dissolved in PBS, pH 6.5 supplemented with 3% BSA. Each incubation was conducted at room temperature for 1 hr and was followed by three washes with PBS, pH 6.5, 0.1% Tween 20. Finally, the peroxidase activities in each well were determined using tetramethyl benzidine as a substrate. If the Aga2 protein were present in the plate, the Sag1p^21-352 should bind to it, the anti-Xpress antibody binds to the Sag1p^21-352 fusion protein, and the sheep anti-mouse IgG antibodies bind specifically to the anti-Xpress antibody."}, "[3]": {"molecular_target": "T3, human melatonin 1a receptor (ML1aR) (Homo sapiens, UniProt P48039)", "T3 construct": "expressed in transfected cells; host or cells: S. cerevisiae (CY17353 in A11/A12; aga1 mutant CY19890 in A13), plasmid Cp2695 (PGKp-ML1aR)", "T3 sequence (P48039 whole entry)": "as above", "assay": "ELISA of DTT-extracted cell surface Aga2-HA induction (HA.11 antibody, HRP readout)", "type": "cell-based", "settings": "for HRP activity: yeast cells, Aga2-HA", "experimental": "(§3) The cells (TOD600=1.5) were pelleted, washed with ice-cold 0.15 M sodium chloride, resuspended in 50 microliters of 25 mM Tris-HCl, pH 8.5, supplemented with 10 mM dithiothreitol (DTI) and incubated for1 hour at 4° C. This DTT incubation step reduced the disulfide bonds between the Aga1 and Aga2 proteins, thereby releasing Aga2 into the extracellular medium. After centrifugation, 50 microliter aliquots of the supernatants were subjected to Western blot analysis. Immunoreactive bands corresponding to Aga2-HA were visualized using HA.11 antibodies (BAbCo) as primary antibodies, sheep anti-mouse IgG conjugated with horseradish peroxidase (Amarsham Pharmacia Biotech) as secondary antibodies, and peroxidase substrate (e.g., tetramethyl benzidine (Pierce)) for a visual readout.\n(§4) Western blot analysis is a qualitative, rather than quantitative methodology. To determine the induction of expression of the Aga2 protein quantitatively, an ELISA strategy was utilized. Cells were cultured, treated, and the Aga2 protein extracted from the cell surface by DTT incubation, as above. Aliquots of these DTT extracts (50 microliters in the case of cells utilizing the Ste2 receptor and 5 microliters in other cases) were diluted to 100 microliters with 100 mM sodium bicarbonate, pH 9.5. Samples were incubated in 96-well polystyrene plates at 4 degrees C overnight. Plates were washed three times with PBS, pH 7.2 supplemented with 0.1% Tween 20 and blocked with the same buffer containing 3% bovine serum albumin at 37° C. for 1 hr. After blocking, the plates were incubated subsequently with 5000-fold diluted HA.11 antibodies (BAbCo) and 5000-fold diluted sheep anti-mouse IgG conjugated with horseradish peroxidase (Amersham Pharmacia Biotech). Each incubation was conducted at room temperature for 1 hr and was followed by three washes with PBS, pH 7.2, 0.1% Tween 20. The peroxidase activities in each well were determined using tetramethyl benzidine as a substrate."}, "[4]": {"molecular_target": "T4, human melatonin 1a receptor (Homo sapiens, UniProt P48039)", "T4 construct": "expressed in transfected cells; host or cells: S. cerevisiae (CY17353 in A11/A12; aga1 mutant CY19890 in A13), plasmid Cp2695 (PGKp-ML1aR)", "T4 sequence (P48039 whole entry)": "as above", "assay": "Western blot of DTT-extracted Aga2-HA", "type": "cell-based", "settings": "increasing concentrations of ligand vs absence", "experimental": "as §3"}, "[5]": {"molecular_target": "T5, Ste2p (Saccharomyces cerevisiae, UniProt D6VTK4)", "T5 construct": "Yeast cells coexpressing either the endogenous yeast receptor Ste2p; endogenous in cells; host or cells: S. cerevisiae MATa cells (strain CY1892 in the Sag1p-based ELISA)", "T5 sequence (D6VTK4 1-431)": "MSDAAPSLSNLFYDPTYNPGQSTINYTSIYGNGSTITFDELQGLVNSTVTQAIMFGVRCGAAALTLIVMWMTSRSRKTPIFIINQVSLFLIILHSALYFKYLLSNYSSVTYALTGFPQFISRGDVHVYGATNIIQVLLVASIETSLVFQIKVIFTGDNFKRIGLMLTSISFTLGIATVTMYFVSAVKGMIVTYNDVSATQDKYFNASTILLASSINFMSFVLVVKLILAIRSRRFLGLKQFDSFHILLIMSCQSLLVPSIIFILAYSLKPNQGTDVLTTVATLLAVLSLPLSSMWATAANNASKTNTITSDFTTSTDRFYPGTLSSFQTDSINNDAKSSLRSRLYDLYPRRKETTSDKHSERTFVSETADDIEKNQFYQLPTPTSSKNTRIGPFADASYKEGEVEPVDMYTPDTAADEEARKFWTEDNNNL", "assay": "Western blot of DTT-extracted Aga2-HA", "type": "cell-based, S. cerevisiae", "settings": "increasing concentrations of ligand vs absence", "experimental": "as §3"}, "[6]": {"molecular_target": "T5, Ste2p", "assay": "ELISA of DTT-extracted cell surface Aga2-HA induction (HA.11 antibody, HRP readout)", "type": "cell-based, S. cerevisiae", "settings": "for HRP activity: yeast cells, Aga2-HA", "experimental": "as §3, §4"}, "[7]": {"molecular_target": "T6, Ste2 receptor (Saccharomyces cerevisiae, UniProt D6VTK4)", "T6 construct": "Yeast cells coexpressing either the endogenous yeast receptor Ste2p; endogenous in cells; host or cells: S. cerevisiae MATa cells (strain CY1892 in the Sag1p-based ELISA)", "T6 sequence (D6VTK4 1-431)": "T5 sequence (D6VTK4 1-431)", "assay": "ELISA-like assay of endogenous Aga2 protein with Sag1p21-352, anti-Xpress antibodies and HRP conjugate", "type": "cell-based, S. cerevisiae", "settings": "yeast cells containing the Ste2 receptor, peroxidase assay", "experimental": "as §1, §2"}, "[8]": {"tested_on": "intact MATa cells (strain CY1892)", "assay": "Binding of Sag1p21-352 to yeast cell surface (Western blot of SDS extracts)", "parameters": "species or system S. cerevisiae", "settings": "cells with or without 100 nM α-factor; 30° C., 30 min", "experimental": "To ensure that this truncation of the Sag1 protein retained full binding activity to α-agglutinin, and more specifically, the Aga2 protein, binding assays were performed. […] The cells (TOD600=1) were pelleted and resuspended in 0.15 ml of the same media supplemented with varying concentrations of Sag1p^21-352. After incubation at 30° C. for 30 min, the cells were washed three times with the same media and incubated in the presence of 2% SDS for 5 min to release Sag1p^21-352 bound to the cell surface. The SDS extracts were subjected to Western blot analysis. The immunoreactive bands corresponding to Sag1p^21-352 were visualized using anti-Xpress antibodies (Invitrogen), as above."}}}
{"molecule": "COc1ccc2[nH]cc(CCNC(C)=O)c2c1", "note": "[melatonin]", "values": [{"measurement": "increase in the levels of HA-tagged Aga2p in the culture media", "setting": "[1]; scintillation proximity assay", "value": "approximately 3 fold"}, {"measurement": "Induction factor", "setting": "[1]; incubation time 1 hr", "value": 2.5}, {"measurement": "Induction factor", "setting": "[1]; incubation time 2 hr", "value": 2.6}, {"measurement": "Induction factor", "setting": "[1]; incubation time 6 hr", "value": 3.1}, {"measurement": "induction of the Aga2 protein", "setting": "[2]", "value": "dose-dependent response"}, {"measurement": "HRP activity", "setting": "[3]; [Ligand] 1 × 10^−6 M", "value": 1.112}, {"measurement": "HRP activity", "setting": "[3]; [Ligand] 1.13 × 10^−7 M", "value": 0.829}, {"measurement": "HRP activity", "setting": "[3]; [Ligand] 1.95 × 10^−9 M", "value": 0.278}, {"measurement": "HRP activity", "setting": "[3]; [Ligand] 3.13 × 10^−8 M", "value": 0.767}, {"measurement": "HRP activity", "setting": "[3]; [Ligand] 4.88 × 10^−10 M", "value": 0.154}, {"measurement": "HRP activity", "setting": "[3]; [Ligand] 5 × 10^−7 M", "value": 1.216}, {"measurement": "HRP activity", "setting": "[3]; [Ligand] 7.81 × 10^−9 M", "value": 0.427}, {"measurement": "Induction factor", "setting": "[3]; cell surface Aga2-HA, ML1aR", "value": 19}, {"measurement": "expression level of the Aga2 protein", "setting": "[4]", "value": "substantial increase"}]}
{"molecule": "α-factor", "values": [{"measurement": "expression level of the Aga2 protein", "setting": "[5]", "value": "substantial increase"}, {"measurement": "HRP activity", "setting": "[6]; [Ligand] 1.13 × 10^−7 M", "value": 2.163}, {"measurement": "HRP activity", "setting": "[6]; [Ligand] 2 × 10^−6 M", "value": 2.332}, {"measurement": "HRP activity", "setting": "[6]; [Ligand] 3.13 × 10^−8 M", "value": 0.548}, {"measurement": "HRP activity", "setting": "[6]; [Ligand] 5 × 10^−7 M", "value": 2.498}, {"measurement": "HRP activity", "setting": "[6]; [Ligand] 7.81 × 10^−9 M", "value": 0.280}, {"measurement": "Induction factor", "setting": "[6]; cell surface Aga2-HA, Ste2p", "value": 15}, {"measurement": "induction of the Aga2 protein", "setting": "[7]", "value": "dose-dependent response"}]}
{"molecule": "B1", "values": [{"measurement": "binding to the cell surface of intact MATa cells", "setting": "[8]", "value": "bound to the cell surface of intact MATa cells only after these cells were treated with α-factor"}]}
